Laboratory results as given in US20230263853A1, “ECTOPARASITICIDE VETERINARY COMPOSITION” (priority 2020, published 2023).

How the values were obtained:
[1] = system: Pseudomonas aeruginosa (ATCC 27853); test: In vitro inhibition test against bacteria, Table 8; format: cell-based; design: key to Inhibitory Activity (stopping power thoroughness and lasting effect): +++ = best; (−) = worst; details: B diluted by 1000 times
Procedure: (§1) An ectoparasiticide veterinary composition of Example 1 (labelled here as PST22) was tested in an in vitro experimental laboratory to test its efficacy against conventional antibiotics used to control harmful bacteria and fungus that cause untold harm in modern poultry producers. Leading world authorities including the World Health Organisation (WHO) have graded Antimicrobial Resistance (AMR) as a serious global health issue that threatens the prevention and treatment of an increasing range of infections.

[2] = system: Salmonella typhimurium (ATCC 14028); test: In vitro inhibition test against bacteria, Table 7; format: cell-based; design: key to Inhibitory Activity (stopping power thoroughness and lasting effect): +++ = best; (−) = worst; details: B diluted by 1000 times
Procedure: as §1

[3] = system: Escherichia coli (ATCC25322); test: In vitro inhibition test against bacteria, Table 5; format: cell-based; design: key to Inhibitory Activity (stopping power thoroughness and lasting effect): +++ = best; (−) = worst; details: B diluted by 1000 times
Procedure: as §1

[4] = system: Aspergillus niger (ITDI Ref. No. 3008); test: In vitro inhibition test against fungi, Table 10; format: cell-based; design: key to Inhibitory Activity (stopping power thoroughness and lasting effect): +++ = best; (−) = worst
Procedure: (§2) An ectoparasiticide veterinary composition of Example 1 (labelled here as PST22) was tested in an in vitro experimental laboratory to test its efficacy against conventional antibiotics used to control harmful bacteria and fungus that cause untold harm in modern poultry producers.

[5] = system: Saccharomyces cerevisiae (ATCC 9763); test: In vitro inhibition test against fungi, Table 9; format: cell-based; design: key to Inhibitory Activity (stopping power thoroughness and lasting effect): +++ = best; (−) = worst
Procedure: as §2

[6] = system: Staphylococcus aureus (ATCC 6538P); test: In vitro inhibition test against bacteria, Table 6; format: cell-based; design: key to Inhibitory Activity (stopping power thoroughness and lasting effect): +++ = best; (−) = worst; details: B diluted by 1000 times
Procedure: as §1

[7] = system: red mite; test: Weekly mortality in broiler houses with red mite, trial house vs control house (Example 3); format: in vivo, Dermanyssus gallinae; details: poultry, over the 28 day period; trial house 4 ml per 10 litres water, control house standard antibiotics
Procedure: Two broiler houses of poultry were used in the trial, a first “trial house” and a second “control house”. Mortality was recorded weekly to determine the red mite impact on the poultry.
In the trial house, the ectoparasiticide veterinary composition of Example 1 was administered to chickens via the in-line water system at a dose of 4 ml per 10 litres of clean water. The control house used the farm's standard medication program involving the administration of antibiotics (Fosfomycin and enrofloxacin). Flock performance monitoring (measuring the number of mortalities not including the standard cull numbers) was recorded weekly in each house over a 28 day period.

[8] = Average live weight and feed conversion of broiler birds, trial house vs control house (Example 4); format: in vivo; details: at 28 days, trial house 1 ml per 1 litre drinking water 6 hours daily, control house antibiotics
Procedure: Two poultry houses were used in the trial: a “trial house” and a “control house”. Each house contained 37000 broiler birds.
In the trial house, the ectoparasiticide veterinary composition of Example 1 was administered each afternoon continuously for 6 hours at a dosage of 1 ml per 1 litre of clean drinking water. The control house used the farm's standard medication program involving the administration of antibiotics (Fosfomycin and enrofloxacin).
Average live weight of the birds in each house was recorded weekly for a 28 day period. At the end of the trial a feed conversion ration was identified.

[9] = A undiluted (10 mm), Amikacin 30 ug (8 mm)
[10] = A undiluted (10 mm), Amikacin 30 ug (6 mm)
[11] = A pure (10 mm), B 1 ml/L (10 mm), Clotrimazole (10 mm)
[12] = PST22 - B 1 ml/L (10 mm), Nystatin (10 mm)
[13] = A undiluted (10 mm), Oxacillin 1 ug (6 mm)

## NCC[C@H](O)C(=O)N[C@@H]1C[C@H](N)[C@@H](O[C@H]2O[C@H](CN)[C@@H](O)[C@H](O)[C@H]2O)[C@H](O)[C@H]1O[C@H]1O[C@H](CO)[C@@H](O)[C@H](N)[C@H]1O [Amikacin]
[1]; [9]
  Average of 3× trials Reactivity Killing Power: 17.33 mm
  Trial 1: 17.89 mm
  Trial 2: 17.08 mm
  Trial 3: 17.02 mm
[1]; A undiluted, Amikacin 30 ug
  Inhibitory Activity (stopping power thoroughness and lasting effect): +++
[2]; [9]
  Average of 3× trials Reactivity Killing Power: 16.30 mm
  Trial 1: 16.12 mm
  Trial 2: 16.26 mm
  Trial 3: 16.52 mm
[2]; A undiluted, Amikacin 30 ug
  Inhibitory Activity (stopping power thoroughness and lasting effect): +++
[3]; [10]
  Average of 3× trials Reactivity Killing Power: 16.24 mm
  Trial 1: 16.20 mm
  Trial 2: 16.39 mm
  Trial 3: 16.12 mm
[3]; A undiluted, Amikacin 30 ug
  Inhibitory Activity (stopping power thoroughness and lasting effect): +++

## Clc1ccccc1C(c1ccccc1)(c1ccccc1)n1ccnc1 [Clotrimazole]
[4]; [11]
  Average of 3× trials (larger the better) Reactivity killing power: 16.06 mm
  Trial 1: 15.80 mm
  Trial 2: 16.20 mm
  Trial 3: 16.18 mm
[4]; A pure, B 1 ml/L, Clotrimazole
  Inhibitory Activity (stopping power thoroughness and lasting effect): +++

## C[C@@H]1[C@H](O)[C@@H](C)/C=C/C=C/CC/C=C/C=C/C=C/C=C/C(O[C@H]2O[C@H](C)[C@@H](O)[C@H](N)[C@@H]2O)CC2O[C@](O)(CC(O)C(O)CCC(O)CC(O)CC(O)CC(=O)O[C@H]1C)CC(O)C2C(=O)O (stereo partly drawn) [Nystatin]
[5]; [12]
  Average of 3× trials Reactivity Killing Power: 4 mm
  Total Mean Zone of Inhibition: 21.58 mm
  Trail 2: 21.30 mm
  Trial 1: 21.28 mm
  Trial 3: 22.17 mm
[5]; PST22 - B 1 ml/L, Nystatin
  Inhibitory Activity (stopping power thoroughness and lasting effect): +++

## Cc1onc(-c2ccccc2)c1C(=O)N[C@@H]1C(=O)N2[C@@H]1SC(C)(C)[C@@H]2C(=O)O [Oxacillin]
[6]; [13]
  Average of 3× trials Reactivity Killing Power: 21.25 mm
  Trial 1: 22.82 mm
  Trial 2: 20.20 mm
  Trial 3: 20.72 mm
[6]; A undiluted, Oxacillin 1 ug
  Inhibitory Activity (stopping power thoroughness and lasting effect): +++

## Fosfomycin and enrofloxacin
[7]
  mortality %: 5%
[8]
  final average live weight: 1370 g
